According to US20260226065A1, “SUBSTITUTED BENZENE COMPOUND” (DAIICHI SANKYO COMPANY, LIMITED, priority 2023, published 2026):
Structures can show the parent of a compound that is named as a salt.

Target: T1, NLRP3 inflammasome (Homo sapiens, UniProt Q96P20)
T1 construct: endogenous in cells; host or cells: THP-1 (human monocyte-derived), PMA-differentiated, Nigericin-stimulated
Assay: In vitro IL-1β production test (PMA-differentiated THP-1 cells, Nigericin stimulation, AlphaLISA)
Assay type: cell-based
Conditions: inhibition of IL-1β production; THP-1 cells differentiated with 200 nM PMA; 0.015 mM Nigericin; 2 hours
Description: Human monocyte-derived THP-1 cells were cultured for one day in 10% bovine serum-containing RPMI-1640 medium (Thermo #A10491-01) supplemented with 200 nM phorbol 12-myristate 13-acetate (PMA, Sigma #P8139) to induce differentiation.
NLRP3 inflammasome was induced by replacing the culture medium with bovine serum-free RPMI-1640 medium supplemented with 0.015 mM Nigericin (Sigma #SML1779) and the test compound of known concentrations.
After 2 hours, the culture medium supernatant was collected and the IL-1β protein concentration was measured using the AlphaLISA (registered trademark) assay (PerkinElmer #AL220C).
The IL-1β concentration without the addition of the test compound and with Nigericin stimulation was set as 0% inhibitory activity, and the IL-1β concentration without Nigericin stimulation was set as 100% inhibitory activity, and the inhibition rate (% inhibition) of the test compound at each added concentration was calculated.
The % inhibition value was subjected to sigmoid fitting using a logistic regression model to calculate the 50% inhibitory concentration (IC50 value).

T1 sequence (Q96P20 whole entry): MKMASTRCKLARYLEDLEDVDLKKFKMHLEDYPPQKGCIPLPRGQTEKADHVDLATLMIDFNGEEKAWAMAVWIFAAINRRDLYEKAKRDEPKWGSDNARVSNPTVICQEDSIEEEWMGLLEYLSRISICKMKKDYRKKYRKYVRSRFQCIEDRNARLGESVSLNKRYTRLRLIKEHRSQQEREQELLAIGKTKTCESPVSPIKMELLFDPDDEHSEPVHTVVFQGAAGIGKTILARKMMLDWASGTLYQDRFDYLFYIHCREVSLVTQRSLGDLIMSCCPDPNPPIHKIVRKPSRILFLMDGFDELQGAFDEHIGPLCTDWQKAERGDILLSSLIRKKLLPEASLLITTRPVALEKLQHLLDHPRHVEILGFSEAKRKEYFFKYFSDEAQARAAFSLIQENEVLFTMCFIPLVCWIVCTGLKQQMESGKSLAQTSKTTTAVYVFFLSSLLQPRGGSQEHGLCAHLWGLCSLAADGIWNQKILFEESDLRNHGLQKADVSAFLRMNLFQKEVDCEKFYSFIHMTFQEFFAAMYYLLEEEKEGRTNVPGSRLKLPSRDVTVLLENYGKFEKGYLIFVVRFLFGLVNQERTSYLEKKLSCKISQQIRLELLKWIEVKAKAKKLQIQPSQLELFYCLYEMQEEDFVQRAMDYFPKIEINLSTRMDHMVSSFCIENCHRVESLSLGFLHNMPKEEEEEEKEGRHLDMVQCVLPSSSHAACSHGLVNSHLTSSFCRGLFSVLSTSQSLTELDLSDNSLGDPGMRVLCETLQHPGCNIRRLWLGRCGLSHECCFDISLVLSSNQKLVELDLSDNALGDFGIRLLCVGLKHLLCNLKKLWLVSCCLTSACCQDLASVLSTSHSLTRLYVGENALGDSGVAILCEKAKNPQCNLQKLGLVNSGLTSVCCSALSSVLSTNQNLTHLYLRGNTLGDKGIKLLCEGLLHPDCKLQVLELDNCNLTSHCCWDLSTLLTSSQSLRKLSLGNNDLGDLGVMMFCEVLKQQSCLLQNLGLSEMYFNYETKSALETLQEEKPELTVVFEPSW

| SMILES | IC50 |
| --- | --- |
| CN1CCC[C@@H](N2CCN3CCCc4c(-c5ccc(C(F)(F)F)cc5O)nnc2c43)C1 [Example 38, 2-{9-[(3R)-1-methylpiperidin-3-yl]-5,6,8,9-tetrahydro-4H, 7H-1,2,6a,9-tetraazaphenalen-3-yl}-5-(trifluoromethyl)phenol] | 108 nM |
| Cc1c(-c2ccc(C(F)(F)F)cc2O)nnc2c1CCN2[C@H]1C[C@@](C)(O)C1 [Example 39, 2-{7-[(1s,3s)-3-hydroxy-3-methylcyclobutyl]-4-methyl-6,7-dihydro-5H-pyrrolo[2,3-c]pyridazin-3-yl}-5-(trifluoromethyl)phenol] | 401 nM |
| Cc1cc(C(F)(F)F)cc(O)c1-c1cc2c(nn1)N([C@H]1C[C@@](C)(O)C1)CC2 [Example 40, 2-{7-[(1s,3s)-3-hydroxy-3-methylcyclobutyl]-6,7-dihydro-5H-pyrrolo[2,3-c]pyridazin-3-yl}-3-methyl-5-(trifluoromethyl)phenol monohydrochloride] | 162 nM |
| Cc1c(-c2ccc3c(c2O)CCC3)nnc2c1ccn2[C@H]1C[C@@](C)(O)C1 [Example 41, 5-{7-[(1s,3s)-3-hydroxy-3-methylcyclobutyl]-4-methyl-7H-pyrrolo[2,3-c]pyridazin-3-yl}-2,3-dihydro-1H-inden-4-ol] | 77.5 nM |
| CCc1cn([C@H]2C[C@@](C)(O)C2)c2nnc(-c3c(C)cc(C(F)(F)F)cc3O)cc12 [Example 44, 2-{5-ethyl-7-[(1s,3s)-3-hydroxy-3-methylcyclobutyl]-7H-pyrrolo[2,3-c]pyridazin-3-yl}-3-methyl-5-(trifluoromethyl)phenol] | 75 nM |
| Cc1cc(C(F)(F)F)cc(O)c1-c1cc2c(C3CC3)cn([C@H]3C[C@@](C)(O)C3)c2nn1 [Example 46, 2-[5-cyclopropyl-7-[(1s,3s)-3-hydroxy-3-methylcyclobutyl]-7H-pyrrolo[2,3-c]pyridazin-3-yl]-3-methyl-5-(trifluoromethyl)phenol] | 91.4 nM |
| Cc1cc(C(F)(F)F)c(F)c(O)c1-c1cc2c(C)cn([C@H]3C[C@@](C)(O)C3)c2nn1 [Example 48, 2-fluoro-6-{7-[(1s,3s)-3-hydroxy-3-methylcyclobutyl]-5-methyl-7H-pyrrolo[2,3-c]pyridazin-3-yl}-5-methyl-3-(trifluoromethyl)phenol] | 101 nM |
| Cc1cc(C(F)(F)F)cc(O)c1-c1cc2c(nn1)N([C@H]1CN(C)CC[C@H]1O)CC2 [Example 49, (3S,4R)-3-{3-[2-hydroxy-6-methyl-4-(trifluoromethyl)phenyl]-5,6-dihydro-7H-pyrrolo[2,3-c]pyridazin-7-yl}-1-methylpiperidin-4-ol] | 78 nM |
| Cc1c(F)c(C(F)(F)F)cc(O)c1-c1cc2c(C)cn([C@H]3C[C@@](C)(O)C3)c2nn1 [Example 50, 4-fluoro-2-{7-[(1s,3s)-3-hydroxy-3-methylcyclobutyl]-5-methyl-7H-pyrrolo[2,3-c]pyridazin-3-yl}-3-methyl-5-(trifluoromethyl)phenol] | 236 nM |
| Cc1cn([C@H]2C[C@@](C)(O)C2)c2nnc(-c3c(O)cc(C(F)(F)F)cc3C#N)cc12 [Example 53, 3-hydroxy-2-{7-[(1s,3s)-3-hydroxy-3-methylcyclobutyl]-5-methyl-7H-pyrrolo[2,3-c]pyridazin-3-yl}-5-(trifluoromethyl)benzonitrile] | 275 nM |
| Cc1cc(C(F)(F)F)cc(O)c1-c1cc2c(C)cn([C@@H]3CCC[C@@H](O)C3)c2nn1 [Example 54, 2-{7-[(1R,3R)-3-hydroxycyclohexyl]-5-methyl-7H-pyrrolo[2,3-c]pyridazin-3-yl}-3-methyl-5-(trifluoromethyl)phenol] | 84.3 nM |
| Cc1cc(C(F)(F)F)cc(O)c1-c1cc2c(C(F)(F)F)cn([C@H]3C[C@@](C)(O)C3)c2nn1 [Example 59, 2-{7-[(1s,3s)-3-hydroxy-3-methylcyclobutyl]-5-(trifluoromethyl)-7H-pyrrolo[2,3-c]pyridazin-3-yl}-3-methyl-5-(trifluoromethyl)phenol] | 95.8 nM |
| Cc1cc(C(F)(F)F)cc(O)c1-c1cc2c(nn1)N([C@@H]1C[C@@H](F)CN(C)C1)CC2 [Example 60, 2-{7-[(3R,5R)-5-fluoro-1-methylpiperidin-3-yl]-6,7-dihydro-5H-pyrrolo[2,3-c]pyridazin-3-yl}-3-methyl-5-(trifluoromethyl)phenol] | 74.8 nM |
| CCc1cc(C)c(-c2cc3c(C)cn([C@H]4C[C@@](C)(O)C4)c3nn2)c(O)c1 [Example 62, 5-ethyl-2-{7-[(1s,3s)-3-hydroxy-3-methylcyclobutyl]-5-methyl-7H-pyrrolo[2,3-c]pyridazin-3-yl}-3-methylphenol] | 70.8 nM |

The next molecules have a lower IC50 than those just listed; values first:

| IC50 | SMILES |
| --- | --- |
| 55.8 nM | Cc1cc(C(F)(F)F)cc(O)c1-c1cc2c(nn1)N([C@@H]1CCCN(CC(C)(C)O)C1)CC2 [Example 58, 2-{7-[(3R)-1-(2-hydroxy-2-methylpropyl)piperidin-3-yl]-6,7-dihydro-5H-pyrrolo[2,3-c]pyridazin-3-yl}-3-methyl-5-(trifluoromethyl)phenol] |
| 42.3 nM | Cc1cn([C@H]2C[C@@](C)(O)C2)c2nnc(-c3c(O)cc(Cl)cc3Cl)cc12 [Example 63, 3,5-dichloro-2-{7-[(1s,3s)-3-hydroxy-3-methylcyclobutyl]-5-methyl-7H-pyrrolo[2,3-c]pyridazin-3-yl}phenol] |
| 39.1 nM | Cc1cc(C#N)cc(O)c1-c1cc2c(C)cn([C@H]3C[C@@](C)(O)C3)c2nn1 [Example 52, 3-hydroxy-4-{7-[(1s,3s)-3-hydroxy-3-methylcyclobutyl]-5-methyl-7H-pyrrolo[2,3-c]pyridazin-3-yl}-5-methylbenzonitrile] |
| 33.6 nM | Cc1cc(C(F)(F)F)cc(O)c1-c1cc2c(C)c(C)n([C@H]3C[C@@](C)(O)C3)c2nn1 [Example 51, 2-{7-[(1s,3s)-3-hydroxy-3-methylcyclobutyl]-5,6-dimethyl-7H-pyrrolo[2,3-c]pyridazin-3-yl}-3-methyl-5-(trifluoromethyl)phenol] |
| 25.8 nM | Cc1cc(C(F)(F)F)cc(O)c1-c1cc2c(nn1)N([C@@H]1CCCN(C)C1)CCCN2C [Example 37, 3-methyl-2-{5-methyl-9-[(3R)-1-methylpiperidin-3-yl]-6,7,8,9-tetrahydro-5H-pyridazino[3,4-b][1,4]diazepin-3-yl}-5-(trifluoromethyl)phenol] |
| 25.3 nM | Cc1cc(C(F)(F)F)cc(O)c1-c1cc2c(nn1)N([C@@H]1CCCN(CC3CC3)C1)CC2 [Example 61, 2-{7-[(3R)-1-(cyclopropylmethyl)piperidin-3-yl]-6,7-dihydro-5H-pyrrolo[2,3-c]pyridazin-3-yl}-3-methyl-5-(trifluoromethyl)phenol] |
| 22.1 nM | Cc1cc2c(c(O)c1-c1cc3c(C)cn([C@H]4C[C@@](C)(O)C4)c3nn1)CCC2 [Example 43, 5-{7-[(1s,3s)-3-hydroxy-3-methylcyclobutyl]-5-methyl-7H-pyrrolo[2,3-c]pyridazin-3-yl}-6-methyl-2,3-dihydro-1H-inden-4-ol] |
| 14.4 nM | Cc1cc(C(F)(F)F)cc(O)c1-c1cc2c(C)cn([C@@H]3CCCN(C)C3)c2nn1 [Example 56, 3-methyl-2-{5-methyl-7-[(3R)-1-methylpiperidin-3-yl]-7H-pyrrolo[2,3-c]pyridazin-3-yl}-5-(trifluoromethyl)phenol] |
| 8.81 nM | Cc1cc(C(F)(F)F)cc(O)c1-c1cc2c(C#N)cn([C@H]3C[C@@](C)(O)C3)c2nn1 [Example 45, 7-[(1s,3s)-3-hydroxy-3-methylcyclobutyl]-3-[2-hydroxy-6-methyl-4-(trifluoromethyl)phenyl]-7H-pyrrolo[2,3-c]pyridazine-5-carbonitrile] |
